Reference: patent EP4563148A1, “MEDICINE FOR TREATING CANCER” (Science Technology Interact Co., Ltd., priority 2022, dated 2024)

Tests used:
Type in all cases: cell-based, human
[1] = test system: KYSE30 cells; assay: Cell viability of KYSE30 cells with siRNA-reduced homologous recombination activity; details: KYSE30 cells with expression of RAD51 suppressed by siRNA, compared with control
Method: (§1) KYSE270 cells and KYSE30 cells (human esophageal squamous cell carcinoma cell line) were purchased from JCRB Cell Bank, National Institutes of Biomedical Innovation, Health and Nutrition (Osaka, Japan). KYSE270 cells and KYSE30 cells were cultured in a medium in which RPMI1640 and Ham's F12 medium (both of which were manufactured by FUJIFILM Wako Pure Chemical Corporation, Osaka, Japan) were mixed in equal amounts and 5% FBS was added at 37°C in the presence of 5% CO2.
(§2) HeLa cell suspension adjusted to 5000 cells/ml was seeded in a 96 well plate at 100 ul/well, and the next day, siRNA was introduced, followed by addition of Olaparib or Nicaraven. One hundred twenty hours after gene introduction and Olaparib addition, HeLa cells were replaced in a medium to which Presto Blue assay (Thermo-Fisher Scientific, Waltham, MA, USA) had been added so as to have a final concentration of 5%, followed by reaction in the presence of 5% CO2 at 37°C for 1 hour, and then fluorescence was measured under conditions of an excitation wavelength of 520 nm and a fluorescence wavelength of 580 to 640 nm using GloMax (registered trademark) Explorer Multimode Microplate Reader (Promega, Madison, WI, USA).
Fig. 7. […]

[2] = test system: KYSE270 cells; assay: Cell viability of KYSE270 cells with siRNA-reduced homologous recombination activity; details: KYSE270 cells with expression of RAD51 suppressed by siRNA, compared with control; 5 days of culture
Method: as §1, §2
Fig. 6A. […] After 5 days of culture, cell viability was measured. […]

[3] = test system: homologous recombination activity; assay: Assay for site-specific homologous recombination activity (ASHRA); details: HeLa cells, siRNA of control, BRCA1 or RAD51; 48 hours of culture with drug
Method: HeLa cells were seeded on a 3.5 cm dish, and the next day, siRNA was introduced. After 24 hours of culture from the introduction of siRNA, LentiCRISPRv2-ACTB-C1 and pBS-ACTB-200 GFPfr1 (vector for ASHRA measurement) were introduced, and Nicaraven was added at the same time. After further culturing for 48 hours, genomic DNA was purified using Blood Genomic DNA Extraction Mini Kit (Favorgen, Ping-tung, Taiwan). Genome quantitative PCR was performed using Go Taq qPCR master mix (Promega, Madison, WI, USA), measurement was done using CFX96 Touch Real-time PCR detection system (BioRad, Hercules, CA, USA), and knock-in efficiency was calculated by ΔΔCt method. Sequences of a primer for detecting a knock-in allele and a primer for detecting a reference allele are shown below. • For knock-in allyl detection • Forward […] • Reverse […] • For reference allyl detection • Forward […] • Reverse […] • Reference paper: NPL 2.
After 24 hours, a vector for measurement of homologous recombination activity was introduced, and Nicaraven was added. After 48 hours of culture, DNA was collected and homologous recombination activity was measured.
The homologous recombination ability was analyzed by Assay for site-specific homologous recombination activity (ASHRA) (Yoshino et al. Scientific Reports 2019, method shown in Fig. 5).

[4] = test system: γ-H2AX; assay: γ-H2AX intranuclear foci immunostaining after ionizing radiation (DNA repair process); details: drug 30 minutes before 1.5 Gy of X-ray, 24 hours after irradiation
Method: After cell seeding, Nicaraven was added. After 30 minutes, the cells were irradiated with 1.5 Gy of X-ray, and after 2 hours and 24 hours, the cells were fixed and immunostained with an anti-γ-H2AX antibody.
Cells in which five or more γ-H2AX intranuclear foci were observed were counted, and the ratio was calculated and represented in a graph. Respective cells in which less than 5, 5 or more and less than 10, 10 or more and less than 20, and 20 or more γ-H2AX intranuclear foci were observed were counted, and the ratio was calculated and represented in a graph (Fig. 3D).
After IR, more γ-H2AX intranuclear foci are observed in multiple cells in 2 hours. After 24 hours, DNA double strand break is repaired, reducing the number of cells having intranuclear foci and the number of intranuclear foci per cell. Suppression of expression of RAD51 suppressed DNA damage repair. […] It is considered that more DNA damage was formed due to PARP inhibitory action. The measurement of nuclear focus of γ-H2AX 24 hours after X-ray irradiation in this example is a result in a cell having a fast cell cycle.

[5] = test system: HeLa cells; assay: Drug sensitivity test: cell viability (Presto Blue) of HeLa cells with siRNA-reduced homologous recombination activity; details: 96 hours of culture
Method: as §2
After 96 hours of culture, cell viability was measured.
Figs. 1B and 1C show the measurement results of cell viability.

[6] = test system: γ-H2AX; assay: Western blot of γ-H2AX after ionizing radiation; details: HeLa cells, drug 30 minutes before 10 Gy of X-ray, collected two hours later
Method: The culture medium for the cells seeded on a 3.5 cm dish was removed, followed by washing with 1x PBS and then direct dissolution in a 1x Sodium dodecyl sulfate (SDS) sample buffer (2% SDS, 1% 2-Mercaptoethanol [2-ME], 50 mM Tris-HCL [pH 6.8], 12% glycerol, 1% Bromophenol blue [BPB]). Thereafter, the solution was subjected to ultrasonic treatment with Vibra cell (Sonics & Materials Inc., CT, USA) and heated at 95°C for 5 minutes to prepare a whole cell extract. For Western blotting, electrophoresis was performed through a 6%, 10% SDS polyacrylamide gel, and […] was done to a PVDF membrane (Millipore Corporation Darmstadt, Germany) for 1.5 h, followed by blocking with 5% skim milk-PBS for 3 to 16 h. After blocking, a primary antibody diluted with a 0.5% BSA/TBS-T or Can get signal solution (TOYOBO, Osaka, Japan) was allowed to react overnight at 4°C. After washing 3 times with PBS-T for 10 minutes, a secondary antibody diluted with 0.5% BSA/TBS-T was allowed to react at room temperature for 1 to 3 hours. […]
The day after HeLa cells were seeded, Nicaraven was added, and 30 minutes later, the cells were irradiated with 10 Gy of X-ray. […] Cell extracts were adjusted and analyzed with Western Blot. […]

[7] = HeLa cells with expression of BRCA1 and RAD51 suppressed by siRNA, compared with control siRNA

Compound	cell viability [1]	cell viability [2]	homologous recombination activity [3]	γ-H2AX intranuclear foci (DNA damage remaining) ([4]; HeLa cells with expression of RAD51 suppressed, compared with control)	γ-H2AX intranuclear foci (DNA damage remaining) ([4]; HeLa cells, control and RAD51 siRNA)	cell viability [5, 7]	cell viability ([5]; HeLa cells, drug added 24 hours after siRNA)	amount of γ-H2AX [6]
CC(CNC(=O)c1cccnc1)NC(=O)c1cccnc1 (stereo not shown) [Nicaraven]	cell viability decreased	cell viability further decreased	did not affect the homologous recombination ability	DNA damage remained more remarkably	caused DNA damage to remain	cell viability further decreased	decreased cell viability in a concentration-dependent manner	reduced
O=C(c1cc(Cc2n[nH]c(=O)c3ccccc23)ccc1F)N1CCN(C(=O)C2CC2)CC1 [Olaparib]	–	decreased cell viability	–	–	–	decreased cell viability	–	–
